Assay results taken from patent publication US20230255904A1, “PHARMACEUTICAL COMPOSITION FOR PREVENTING OR TREATING CANCER COMPRISING NAPHTHOQUINONE-BASED COMPOUND AND IMMUNE CHECKPOINT INHIBITOR AS ACTIVE INGREDIENTS” (NADIANBIO LTD., priority 2020, published 2023).

Legend:
4T1 = test: Tumor growth inhibition, animal model for breast cancer I (4T1); type: in vivo, BALB/c mice
Protocol: (§1) All mice used in the experiments were raised in a sterile animal room with constant temperature (22° C. to 26° C.) and constant humidity (55% to 60%), acclimatized for 1 week while sufficiently supplying typical solid feed (Samtako Inc., Korea) and water, and then used. All experiments were conducted after obtaining approval from the Institutional Animal Care and Use Committee in accordance with the laboratory animal care and ethics regulations of the Institutional Animal Care and Use Committee of Wonkwang University.
(§2) 7-week-old BALB/c or C57BL/6 mice were used, and subcutaneously inoculated using a 1-mL insulin syringe within 30 minutes after mixing the mouse cancer cells with 0.2 mL of PBS.
(§3) After the cancer cell line was subcutaneously implanted, the administration of drugs was started when the size of the cancer reached 50 to 100 mm^3. The volumes (mm^3) of the tumors, which were generated after the inoculation, were measured at intervals of 3 days using a caliper, calculation was performed using the formula of […], and then the results thereof were compared.
(§4) In addition, sole administration or co-administration of respective drugs was performed according to the administration schedules listed in Tables 4 to 34 below, the tumor volumes were then measured according to the tumor proliferation assessment method described in Example 1.1, the tumor growth inhibition rates (TGI (O)=(Vc−Vt)/Vc×100(%); Vc: tumor volume of control, Vt tumor volume of experimental group) were calculated based the tumor volumes, and the results thereof are shown in the respective tables and FIGS. 1 to 31.

RENCA = test: Tumor growth inhibition, animal model for renal cancer (RENCA); type: in vivo, BALB/c mice
Protocol: as §1, §2, §3, §4

B16F10 = test: Tumor growth inhibition, animal model for skin cancer (B16F10); type: in vivo,  mice
Protocol: as §1, §2, §3, §4

Hepa1-6 = test: Tumor growth inhibition, animal model for liver cancer (Hepa1-6); type: in vivo, C57BL/6 mice; details: Dunnione 40 mg/kg oral every day from 11th day, Anti-CTLA4 antibody 200 μg/head i.p. 2 times a week from 11th day
Protocol: as §1, §2
as §3, with “compared. […]” for “compared.”

KLN205 = test: Tumor growth inhibition, animal model for lung cancer I (KLN205); type: in vivo, DBA/2 mice; details: Experimental Example 30, dunnione 40 mg/kg oral daily from 5th day, anti-PD-1 antibody 100 μg/head, carboplatin 25 mg/kg + paclitaxel 10 mg/kg intraperitoneal 2 times a week, 4 times in total
Protocol: as §1, §2
as §3, with “compared. […]” for “compared.”

4T1-Luc = test: Tumor metastasis analysis, photon emission amount after tumor resection (4T1-Luc); type: in vivo, BALB/c mice; details: Experimental Example 32; 17th day after primary tumor removal; dunnione 40 mg/kg oral daily; anti-CTLA4 antibody 200 μg/head intraperitoneal at intervals of 3 days; mitoxantrone 6 mg/kg intraperitoneal once on 1st day
Protocol: 4T1-Luc (2.5×10^6 cells) as a mouse breast cancer cell line overexpressing a luciferase was implanted into mammary fat pads of BALB/c mice, and the tumor was removed through surgical resection when the size of the cancer reached 150 to 200 mm^3. The administration of drugs was started from the day after the tumor removal procedure, and the degree of cancer metastasis was measured by measuring the photon emission amount at intervals of 1 week from the 3rd day after the tumor removal procedure.
After sole administration or co-administration of respective drugs was performed according to the administration schedule listed in Table 35 below, the photon emission amount (fold) was measured on the 17th day according to the tumor metastasis assessment method described in Example 2.1, and the results thereof are shown in Table 35 and FIG. 32.

[1] = system: spontaneous non-small cell lung cancer (Kras^LSL-G12D/+; Trp53^flox/flox mice); test: Tumor proliferation in genetically engineered mouse models for spontaneous non-small cell lung cancer (Micro-CT); type: in vivo; details: compared to before the drug administration, Micro-CT imaging; dunnione 40 mg/kg, carboplatin 25 mg/kg, paclitaxel 10 mg/kg, anti-PD-1 antibody 200 μg/head
From the text: Models for spontaneous non-small cell lung cancer were induced by constructing conditional mutant mice (Kras^LSL-G12D/+; Trp53^flox/flox mice) having Ras activation and p53 variation through crossbreeding of conditional K-Ras activation variation-genetically engineered mice and conditional p53 variation-genetically engineered mice, and then performing intratracheal instillation of adenoviruses (Ad5-CMV-Cre; 2.5×10^7 PFU/infectious units), into which Cre genes were introduced, into the lung. […]
After sole administration or co-administration of respective drugs was performed according to the administration schedule listed in Table 38 below and FIG. 35, the tumor growth rate for each group compared to before the drug administration was measured at the 6th week through Micro-CT imaging, and the results thereof were summarized in Table 39.

With `CC1OC2=C(C(=O)C(=O)c3ccccc32)C1(C)C` (stereo not drawn) [Dunnione, 2,3,3-trimethyl-2H-benzo[g][1]benzofuran-4,5-dione] as the molecule, how does the “TGI (%)” value (4T1; Experimental Example 10, Dunnione 40 mg/kg oral every day from 5th day, Anti-CTLA4 antibody 200 μg/head i.p. at intervals of 3 days from 5th day, 4 times, Mitoxantrone 6 mg/kg i.p. once on 5th day) read?
The value was 8.9%.

And the “TGI (%)” value (4T1; Experimental Example 12, Dunnione 40 mg/kg oral every day from 7th day, Adriamycin 3.08 mg/kg + Cyclophosphamide 30.8 mg/kg + Paclitaxel 4.12 mg/kg i.p. at intervals of 1 week from 7th day, 3 times)?
The value was 23.6%.

And the “TGI (%)” value (4T1; Experimental Example 13, Dunnione 40 mg/kg oral every day from 7th day, Docetaxel 4.06 mg/kg + Adriamycin 2.7 mg/kg + Cyclophosphamide 27 mg/kg i.p. at intervals of 1 week from 7th day, 4 times)?
The value was 16.1%.

And the “TGI (%)” value (RENCA; Experimental Example 15, Dunnione 40 mg/kg oral every day from 7th day, Anti-CTLA4 antibody 200 μg/head i.p. at intervals of 3 days from 7th day, 7 times, Everolimus 250 μg/kg oral every day from 7th day)?
The value was 7.8%.

What about the “TGI (%)” value (RENCA; Experimental Example 16, Dunnione 40 mg/kg oral every day from 7th day, Sorafenib 10 mg/kg oral every day from 7th day) of the same molecule?
The value was 14.5%.

What about the “TGI (%)” value (RENCA; Experimental Example 17, Dunnione 40 mg/kg oral every day from 7th day, Anti-CTLA4 antibody 200 μg/head i.p. at intervals of 3 days from 7th day, 3 times, Sorafenib 10 mg/kg oral every day from 7th day) of the same molecule?
Its value is 14.5%.

What about the “TGI (%)” value (RENCA; Experimental Example 18, Dunnione 40 mg/kg oral every day from 7th day, Anti-PD-1 antibody 100 μg/head i.p. 2 times a week from 7th day, 5 times, Everolimus 0.1 mg/kg oral every day from 7th day) of the same molecule?
Its value is 5.2%.

And the “TGI (%)” value (RENCA; Experimental Example 19, Dunnione 40 mg/kg oral every day from 7th day, Anti-CTLA4 antibody 200 μg/head i.p. 2 times a week from 7th day, 5 times, Sorafenib 10 mg/kg oral every day from 7th day)?
The value was 44.6%.

What about the “TGI (%)” value (RENCA; Experimental Example 20, Dunnione 40 mg/kg oral every day from 10th day, Anti-CTLA4 antibody 200 μg/head i.p. 2 times a week from 10th day, 5 times, Vistusertib 10 mg/kg oral every day from 10th day) of the same molecule?
The value was 33.2%.

What about the “TGI (%)” value (B16F10; Experimental Example 21, Dunnione 40 mg/kg oral every day from 6th day, Anti-PD-L1 antibody 200 μg/head i.p. 2 times a week from 6th day, 3 times) of the same molecule?
Its value is 24.1%.

What about the “TGI (%)” value (B16F10; Experimental Example 22, Dunnione 40 mg/kg oral every day from 6th day, Anti-PD-L1 antibody 200 μg/head i.p. 2 times a week from 6th day, 3 times, Paclitaxel 14 mg/kg i.p. at intervals of 1 week from 6th day, 2 times) of the same molecule?
Its value is 24.1%.

What about the “TGI (%)” value (B16F10; Experimental Example 23, Dunnione 40 mg/kg oral every day from 6th day, Anti-CTLA4 antibody 200 μg/head i.p. 2 times a week from 6th day, 4 times, Paclitaxel 14 mg/kg i.p. once on 6th day) of the same molecule?
Its value is 16.7%.

What about the “TGI (%)” value (B16F10; Experimental Example 24, Dunnione 40 mg/kg oral every day from 7th day, Anti-CTLA4 antibody 100 μg/head i.p. 2 times a week from 7th day, 2 times, Regorafenib 3 mg/kg oral every day from 7th day) of the same molecule?
Its value is 9.2%.

And the “TGI (%)” value (B16F10; Experimental Example 25, Dunnione 40 mg/kg oral every day from 8th day, Anti-PD-1 antibody 100 μg/head i.p. 2 times a week from 8th day, 3 times, Vistusertib 15 mg/kg oral every day from 8th day)?
Its value is 34.6%.

And the “TGI (%)” value (B16F10; Experimental Example 26, Dunnione 40 mg/kg oral every day from 8th day, Everolimus 0.5 mg/kg oral every day from 8th day)?
Its value is 31.5%.

And the “TGI (%)” value (B16F10; Experimental Example 27, Dunnione 40 mg/kg oral every day from 8th day, Anti-PD-1 antibody 100 μg/head i.p. 2 times a week from 8th day, 3 times, Everolimus 0.5 mg/kg oral every day from 8th day)?
The value was 34.6%.

And the “TGI (%)” value (Hepa1-6; Experimental Example 28, 4 times, Sorafenib 10 mg/kg oral every day from 11th day)?
The value was 29.1%.

What about the “TGI (%)” value (Hepa1-6; Experimental Example 29, 3 times, Everolimus 1 mg/kg oral every day from 11th day) of the same molecule?
The value was 22.4%.

What about the “TGI (%)” value (KLN205) of the same molecule?
The value was 10.2%.

And the Photon emission amount (4T1-Luc)?
Its Photon emission amount is 2805.3 ± 2352.3 fold.

What about the “Tumor growth rate (fold) at 6th week” value [1] of the same molecule?
Its value is 34.6 ± 54 fold.
